Data on eight compounds can be found in PubChem BioAssay (NCI).

Test systems include HS 578T breast; HOP-92 NSCLC; CAKI-1 renal; HCT-15 colon; OVCAR-4 ovarian; SNB-19 CNS; NCI-H226 lung; RXF 393 renal; SK-OV-3 ovarian; SR leukemia.
What all share (test): NCI-60 cell line screen, 48 h

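In this assay, cells in 96-well plates receive the compound at five concentrations for 48 hours. Endpoints are linearly interpolated between the surrounding concentrations. GI50 is the concentration that inhibits growth by half. TGI is the concentration that stops growth completely.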

`C/C=C(\N=C=S)C(=O)OC1C(COC(C)=O)OC([C@]2(O)CC(=O)C(=N)C(C(=O)O)=C2O)C(O)C1OC1CC(OC)C(O)([C@@H](C)OC(=O)[C@@H](C)CC)C(C)O1` (some centres undefined): the TGI in the assay on HS 578T breast was over 96.1 µM; with HOP-92 NSCLC, 9.77 µM; in the assay on CAKI-1 renal it was 35 µM; with HCT-15 colon it was 37.1 µM; in the assay with OVCAR-4 ovarian, 19.4 µM; in the assay on SNB-19 CNS it was 31.5 µM. Also, the TGI with NCI-H226 lung stood at 39.5 µM; with RXF 393 renal, 15.5 µM; in the assay with SK-OV-3 ovarian it was 52 µM; with SR leukemia, 23.2 µM.
Consider `COC(=O)[C@]12CC[C@@H](C)[C@H](C)[C@@H]1C1=CC[C@@H]3[C@@]4(C)C(C=O)=C[C@@](C)(CO)[C@@H]4[C@H](O)C[C@@]3(C)[C@]1(C)CC2`, for which the GI50 in the assay with HS 578T breast is 4.82 µM; with HOP-92 NSCLC it was 6.18 µM; in the assay on CAKI-1 renal it was 3.71 µM; with HCT-15 colon, 2.11 µM; with OVCAR-4 ovarian, 4.17 µM; in the assay with SNB-19 CNS, 7.69 µM. The GI50 in the assay with NCI-H226 lung is 13.9 µM; in the assay with RXF 393 renal, 2.64 µM; in the assay on SK-OV-3 ovarian, 17 µM; in the assay with SR leukemia, 1.92 µM. Moreover, the TGI in the assay with HS 578T breast worked out at 26.4 µM; in the assay on HOP-92 NSCLC, 20.9 µM; in the assay with CAKI-1 renal, 16.8 µM; with HCT-15 colon it was 6 µM; with OVCAR-4 ovarian it was 16.8 µM; with SNB-19 CNS, 21.7 µM. Further, the TGI in the assay on NCI-H226 lung came out at 46.9 µM; in the assay on RXF 393 renal, 8.75 µM; in the assay on SK-OV-3 ovarian, 31.6 µM; with SR leukemia, 6.74 µM.
In the case of `O=C1C=C(NCCO)c2nccc3c2c1nc1ccccc13`, the GI50 with HS 578T breast was 25.5 µM; in the assay on HOP-92 NSCLC, over 100 µM; in the assay on CAKI-1 renal, 23.3 µM; with HCT-15 colon, 18.6 µM; with OVCAR-4 ovarian it was 41.3 µM; in the assay with SNB-19 CNS, 34 µM. Also, the GI50 in the assay on NCI-H226 lung was 14.8 µM; in the assay on RXF 393 renal it was 28.2 µM; in the assay with SK-OV-3 ovarian it was 80.1 µM; in the assay on SR leukemia, 6.76 µM. For the same compound, the TGI is over 100 µM in the assay with HS 578T breast; over 100 µM in the assay with HOP-92 NSCLC; 82.2 µM with CAKI-1 renal; over 100 µM in the assay with HCT-15 colon; over 100 µM with OVCAR-4 ovarian; over 100 µM in the assay on SNB-19 CNS. Moreover, the TGI was 59.5 µM in the assay with NCI-H226 lung, 89.4 µM in the assay with RXF 393 renal, over 100 µM in the assay with SK-OV-3 ovarian and over 100 µM with SR leukemia.
On to `C=C1c2nc3ccccc3n2C=C(c2cccc(Cl)c2)N1Cc1ccc(OC)cc1`, for which the GI50 in the assay with HS 578T breast is 0.565 µM; in the assay on HOP-92 NSCLC, 2.36 µM; with HCT-15 colon, 0.535 µM; in the assay on OVCAR-4 ovarian, 1.83 µM; in the assay with SNB-19 CNS it was 1.04 µM; with NCI-H226 lung, 4.5 µM. Also, the GI50 in the assay with RXF 393 renal is 1.16 µM; in the assay on SK-OV-3 ovarian it was 2.88 µM; in the assay with SR leukemia, 0.274 µM. Further, the TGI is over 100 µM in the assay with HS 578T breast; over 82.4 µM with HOP-92 NSCLC; 4.71 µM in the assay with CAKI-1 renal; over 100 µM in the assay with HCT-15 colon; over 100 µM in the assay on OVCAR-4 ovarian; over 100 µM in the assay with SNB-19 CNS. Further, the TGI with NCI-H226 lung is 30 µM; in the assay on RXF 393 renal it was 13.1 µM; in the assay on SK-OV-3 ovarian, over 100 µM; with SR leukemia, 1.31 µM.
For the compound `C=CCn1c2ccccc2c2c3c(c4c5ccccc5n(CC=C)c4c21)C(=O)N(O)C3=O`, the GI50 in the assay with HS 578T breast was 19.6 µM; in the assay with HOP-92 NSCLC, 7.13 µM; in the assay with CAKI-1 renal it was 1.69 µM; in the assay with HCT-15 colon it was 3.18 µM; with OVCAR-4 ovarian, 5.38 µM; in the assay on SNB-19 CNS it was 4.18 µM. Further, the GI50 is 6.36 µM with NCI-H226 lung, 3.94 µM in the assay with RXF 393 renal, 3.22 µM with SK-OV-3 ovarian and 0.363 µM in the assay with SR leukemia. The TGI is over 100 µM in the assay on HS 578T breast; 25.5 µM in the assay on HOP-92 NSCLC; 3.45 µM in the assay with CAKI-1 renal; 17 µM in the assay on HCT-15 colon; 44.8 µM with OVCAR-4 ovarian; over 100 µM in the assay with SNB-19 CNS. The TGI in the assay with NCI-H226 lung is 42.2 µM; in the assay on RXF 393 renal, 19.6 µM; with SK-OV-3 ovarian, over 100 µM; with SR leukemia, 5.67 µM.
Consider `CC(C)(C)[Si](C)(C)OCC1OC(n2cnc3c(=O)[nH]cnc32)CC1O` (centres undefined), for which the TGI with HS 578T breast, with HOP-92 NSCLC, in the assay with CAKI-1 renal, in the assay on HCT-15 colon, in the assay on OVCAR-4 ovarian and in the assay with SNB-19 CNS was over 100 µM in each case. The TGI in the assay with NCI-H226 lung, in the assay on RXF 393 renal, in the assay on SK-OV-3 ovarian and with SR leukemia was over 100 µM each time.
Turning to `CN1CCC2(CC1)N=C(SCC(=O)Nc1cnc3ccccc3c1)C(c1ccc(Br)cc1)=N2`, the GI50 is 2.23 µM in the assay on HS 578T breast; 1.22 µM in the assay with HOP-92 NSCLC; 1.64 µM in the assay with CAKI-1 renal; 1.86 µM in the assay on HCT-15 colon; 3.52 µM with OVCAR-4 ovarian; 2.58 µM in the assay on SNB-19 CNS. Moreover, the GI50 with NCI-H226 lung was 10.4 µM; in the assay with RXF 393 renal, 1.77 µM; in the assay with SK-OV-3 ovarian, 4.25 µM; with SR leukemia, 2.07 µM. The TGI amounted to 7.27 µM in the assay on HS 578T breast; 3.35 µM in the assay on HOP-92 NSCLC; 3.94 µM in the assay on CAKI-1 renal; 3.76 µM with HCT-15 colon; 15.8 µM in the assay with OVCAR-4 ovarian; 7.83 µM with SNB-19 CNS. In addition, the TGI is 26.2 µM with NCI-H226 lung, 4.29 µM in the assay with RXF 393 renal, 15.9 µM in the assay with SK-OV-3 ovarian and 5.29 µM with SR leukemia.
`C[C@]12CC[C@H](O[C@@H]3O[C@H](CO[C@@H]4O[C@H](CO)[C@@H](O)[C@H](O)[C@H]4O)[C@@H](O)[C@H](O)[C@H]3O)C[C@@H]1CC[C@@H]1[C@@H]2CC[C@]2(C)[C@@H](C3=CC(=O)OC3)CC[C@]12O`: the TGI in the assay on HS 578T breast is over 100 µM; in the assay with HOP-92 NSCLC it was over 89.1 µM; with CAKI-1 renal, over 58.9 µM; with HCT-15 colon, 42.9 µM; in the assay with OVCAR-4 ovarian, 57.8 µM; in the assay with SNB-19 CNS, over 100 µM. Besides, the TGI in the assay with NCI-H226 lung is over 95.8 µM; in the assay with RXF 393 renal, 41.1 µM; in the assay on SK-OV-3 ovarian, over 72.6 µM; in the assay with SR leukemia, over 100 µM.
